Assay results: PubChem BioAssay AID226 (DTP/NCI, 2004)
Values joined by “and” are separate entries in the source; they are usually repeats but may differ in a detail not shown here. Identical values can stand only once. Inconclusive results and toxic doses are left out. How the source made its calls: active means survival T/C of 150% or more; inactive means T/C below 125% in these data.

Test system: B6C3F1 mice, intracerebral ependymoblastoma, median survival T/C
Assay: NCI In Vivo Anticancer Drug Screen. Data for tumor model Ependymoblastoma (intracerebral) in B6C3F1 mice
Conditions: endpoint: median survival time, higher = longer survival
Method: The antitumor activity of compounds was measured in mice bearing transplantable tumors. Survival or tumor size were measured and the results are expressed as the measurement made in the treated group (T) divided by the measurement made in the vehicle treated control group (C). The tumor model used in this assay is Ependymoblastoma (intracerebral) in B6C3F1 mice

[1] = dose: 100.0 mg/kg/injection, schedule: Q01DX005 (ip), vehicle: saline with Tween-80
[2] = dose: 200.0 mg/kg/injection, schedule: Q01DX005 (ip), vehicle: saline with Tween-80
[3] = dose: 50.0 mg/kg/injection, schedule: Q01DX005 (ip), vehicle: Klucel (hydroxypropylcellulose) (HPC)
[4] = dose: 100.0 mg/kg/injection, schedule: Q01DX005 (ip), vehicle: Klucel (hydroxypropylcellulose) (HPC)

Measured: T/C

O=NN(CCF)C(=O)NC1CCCCC1
inactive: dose: 5.1 mg/kg/injection, schedule: Q01DX001 (ip), vehicle: other 106 % of control | dose: 10.2 mg/kg/injection, schedule: Q01DX001 (ip), vehicle: other 123 % of control
active: dose: 5.18 mg/kg/injection, schedule: Q01DX005 (ip), vehicle: Klucel (hydroxypropylcellulose) (HPC) 184 % of control | dose: 8.64 mg/kg/injection, schedule: Q01DX005 (ip), vehicle: Klucel (hydroxypropylcellulose) (HPC) 357 % of control | dose: 13.0 mg/kg/injection, schedule: Q01DX001 (ip), vehicle: Klucel (hydroxypropylcellulose) (HPC) 153 % of control | dose: 14.4 mg/kg/injection, schedule: Q01DX005 (ip), vehicle: Klucel (hydroxypropylcellulose) (HPC) 357 % of control | dose: 20.4 mg/kg/injection, schedule: Q01DX001 (ip), vehicle: other 160 % of control | dose: 21.6 mg/kg/injection, schedule: Q01DX001 (ip), vehicle: Klucel (hydroxypropylcellulose) (HPC) 216 % of control | dose: 24.0 mg/kg/injection, schedule: Q01DX005 (ip), vehicle: Klucel (hydroxypropylcellulose) (HPC) 357 % of control | dose: 36.0 mg/kg/injection, schedule: Q01DX001 (ip), vehicle: Klucel (hydroxypropylcellulose) (HPC) 363 % of control | dose: 40.7 mg/kg/injection, schedule: Q01DX001 (ip), vehicle: other 220 % of control | dose: 60.0 mg/kg/injection, schedule: Q01DX001 (ip), vehicle: Klucel (hydroxypropylcellulose) (HPC) 363 % of control | dose: 81.4 mg/kg/injection, schedule: Q01DX001 (ip), vehicle: other 331 % of control | dose: 100.0 mg/kg/injection, schedule: Q01DX001 (ip), vehicle: Klucel (hydroxypropylcellulose) (HPC) 333 % of control

CCSc1ncnc2c1ncn2C1OC(CO)C(O)C1O (centres undefined)
inactive: dose: 50.0 mg/kg/injection, schedule: Q01DX005 (ip), vehicle: saline with Tween-80 100 % of control and 106 % of control and 122 % of control | [1] 103 % of control and 106 % of control | [2] 107 % of control and 109 % of control

O=c1ccc2ccccc2o1
inactive: dose: 12.5 mg/kg/injection, schedule: Q01DX005 (ip), vehicle: Klucel (hydroxypropylcellulose) (HPC) 100 % of control | dose: 25.0 mg/kg/injection, schedule: Q01DX005 (ip), vehicle: Klucel (hydroxypropylcellulose) (HPC) 92 % of control | dose: 45.0 mg/kg/injection, schedule: Q01DX005 (ip), vehicle: saline with Tween-80 103 % of control | [3] 108 % of control | dose: 90.0 mg/kg/injection, schedule: Q01DX005 (ip), vehicle: saline with Tween-80 98 % of control | [4] 104 % of control

COc1ccc2cc1Oc1ccc(cc1)C[C@H]1c3cc(c(OC)cc3CCN1C)Oc1c(OC)c(OC)cc3c1[C@H](C2)N(C)CC3
inactive: [3] 100 % of control | [4] 88 % of control | dose: 200.0 mg/kg/injection, schedule: Q01DX005 (ip), vehicle: Klucel (hydroxypropylcellulose) (HPC) 108 % of control | dose: 400.0 mg/kg/injection, schedule: Q01DX005 (ip), vehicle: Klucel (hydroxypropylcellulose) (HPC) 91 % of control

CC(C)c1cc(C(=O)O)c(O)c(C(C)C)c1.CC(C)c1cc(C(=O)O)c(O)c(C(C)C)c1.[Cu]
inactive: dose: 6.25 mg/kg/injection, schedule: Q01DX005 (ip), vehicle: saline with Tween-80 103 % of control | dose: 12.5 mg/kg/injection, schedule: Q01DX005 (ip), vehicle: saline with Tween-80 103 % of control

COc1ccc(C[C@H](N)C(=O)NC2C(CO)OC(n3cnc4c(N(C)C)ncnc43)C2O)cc1 (some centres undefined)
inactive: dose: 8.0 mg/kg/injection, schedule: Q01DX005 (ip), vehicle: saline 101 % of control | dose: 16.0 mg/kg/injection, schedule: Q01DX005 (ip), vehicle: saline 101 % of control | dose: 32.0 mg/kg/injection, schedule: Q01DX005 (ip), vehicle: saline 103 % of control | dose: 64.0 mg/kg/injection, schedule: Q01DX005 (ip), vehicle: saline 94 % of control | dose: 128.0 mg/kg/injection, schedule: Q01DX005 (ip), vehicle: saline 102 % of control

NC(=O)c1ncn(C2OC(CO)C(O)C2O)n1 (centres undefined)
inactive: dose: 20.0 mg/kg/injection, schedule: Q01DX005 (ip), vehicle: saline 99 % of control and 100 % of control | dose: 40.0 mg/kg/injection, schedule: Q01DX005 (ip), vehicle: saline 98 % of control and 101 % of control | dose: 80.0 mg/kg/injection, schedule: Q01DX005 (ip), vehicle: saline 92 % of control and 103 % of control | dose: 160.0 mg/kg/injection, schedule: Q01DX005 (ip), vehicle: saline 104 % of control and 121 % of control | dose: 320.0 mg/kg/injection, schedule: Q01DX005 (ip), vehicle: saline 97 % of control and 118 % of control

COCC(O)Cn1ccnc1[N+](=O)[O-] (centres undefined)
active: dose: 100.0 mg/kg/injection, schedule: Q#A X010 (ip), vehicle: saline with Tween-80 167 % of control | dose: 200.0 mg/kg/injection, schedule: Q#A X010 (ip), vehicle: saline with Tween-80 172 % of control | dose: 400.0 mg/kg/injection, schedule: Q#A X010 (ip), vehicle: saline with Tween-80 167 % of control | dose: 800.0 mg/kg/injection, schedule: Q#A X010 (ip), vehicle: saline with Tween-80 165 % of control
inactive: dose: 32.0 mg/kg/injection, schedule: Q01DX005 (ip), vehicle: Klucel (hydroxypropylcellulose) (HPC) 97 % of control | dose: 64.0 mg/kg/injection, schedule: Q01DX005 (ip), vehicle: Klucel (hydroxypropylcellulose) (HPC) 96 % of control | [1] 97 % of control and 111 % of control | dose: 100.0 mg/kg/injection, schedule: Q01DX009 (ip), vehicle: saline with Tween-80 91 % of control and 112 % of control | dose: 100.0 mg/kg/injection, schedule: Q12HX010 (ip), vehicle: saline with Tween-80 109 % of control | dose: 100.0 mg/kg/injection, schedule: Q#ADX018 (ip), vehicle: saline with Tween-80 86 % of control | dose: 128.0 mg/kg/injection, schedule: Q01DX005 (ip), vehicle: Klucel (hydroxypropylcellulose) (HPC) 93 % of control | [2] 106 % of control and 88 % of control | dose: 200.0 mg/kg/injection, schedule: Q01DX009 (ip), vehicle: saline with Tween-80 94 % of control and 107 % of control | dose: 200.0 mg/kg/injection, schedule: Q12HX010 (ip), vehicle: saline with Tween-80 118 % of control | dose: 200.0 mg/kg/injection, schedule: Q#ADX018 (ip), vehicle: saline with Tween-80 94 % of control | dose: 256.0 mg/kg/injection, schedule: Q01DX005 (ip), vehicle: Klucel (hydroxypropylcellulose) (HPC) 92 % of control | dose: 400.0 mg/kg/injection, schedule: Q01DX005 (ip), vehicle: saline with Tween-80 92 % of control and 105 % of control | dose: 400.0 mg/kg/injection, schedule: Q01DX009 (ip), vehicle: saline with Tween-80 96 % of control and 98 % of control | dose: 400.0 mg/kg/injection, schedule: Q12HX010 (ip), vehicle: saline with Tween-80 117 % of control | dose: 400.0 mg/kg/injection, schedule: Q#ADX018 (ip), vehicle: saline with Tween-80 100 % of control | dose: 512.0 mg/kg/injection, schedule: Q01DX005 (ip), vehicle: Klucel (hydroxypropylcellulose) (HPC) 96 % of control | dose: 800.0 mg/kg/injection, schedule: Q01DX005 (ip), vehicle: saline with Tween-80 101 % of control | dose: 800.0 mg/kg/injection, schedule: Q01DX009 (ip), vehicle: saline with Tween-80 103 % of control and 104 % of control | dose: 800.0 mg/kg/injection, schedule: Q12HX010 (ip), vehicle: saline with Tween-80 99 % of control | dose: 800.0 mg/kg/injection, schedule: Q#ADX018 (ip), vehicle: saline with Tween-80 94 % of control
